Entries after “also recorded” stand apart in the source; their conditions may differ.
Legend:
Type in all cases: in vivo, C57BL/6 mice
[1] = tested on: cervical lymphatic vessels (cLVs); assay: 2P-OPTIC two-photon imaging with particle tracking of cervical lymphatic vessel contraction and flow, before and after topical PGF2α; conditions: for decrease in retrograde fraction / ejection rate / increase in ejection fraction / increase in ejection volume / median vessel diameter: after vs before PGF2α; for retrograde fraction after PGF2α / ejection fraction after PGF2α: mean±SEM; for increase in intrinsic pulsation rate: after vs before topical PGF2α 5 μM
[2] = Measurement of vital signs (heart and respiratory rate) before and after PGF2α; conditions: topical PGF2α; young and old mice
Protocol: Heart and respiratory rate were measured using a small animal physiological monitoring 494 device (Harvard Apparatus) which acquired measurements at 1 kHz and 250 Hz, respectively. The signals were digitized and recorded with a DigiData 1550A digitizer and AxoScope software 496 (Axon Instruments).

[3] = tested on: cervical lymphatic vessels (cLVs); assay: Epi-fluorescent macroscopic imaging of OVA-647 CSF tracer drainage in cervical lymphatic vessels; conditions: 60 min imaging, 5 μM PGF2α topical
Protocol: Ovalbumin-conjugated to Alexa Fluor 647 (OVA-647, 0.5% w/v, 45 kDa, Invitrogen, 10 μL, 2 μL/min) was injected into the cisterna magna through a 30G needle connected to PE-10 tubing using a syringe pump (Harvard Apparatus). Cervical lymphatic vessels were surgically exposed as before and imaged using a fluorescent macroscope (MVX10, Olympus) with a PRIOR Lumen 1600-LED light source and ORCA Flash 4.0 digital camera (Hamamatsu) using Metamorph software. The images at 20× magnification from the far-red emission channel (647 nm) were collected at 1 min intervals for 60 min following the start of the injection. Exposure time was kept constant across all the experimental groups. One microliter PBS with or without 5 μM PGF2a was applied directly onto the cervical lymph vessel simultaneously with the injection of OVA-647 into cisterna magna.

[4] = tested on: cervical lymph nodes (cLNs); assay: Ex vivo cervical lymph node imaging of OVA-647 accumulation; conditions: 90 min
Protocol: One microliter PBS with or without 5 μM PGF2a was applied directly onto the cervical lymph vessel simultaneously with the injection of OVA-647 (0.5% w/v, 45 kDa, Invitrogen, 10 μL, 2 μL/min) into cisterna magna for 90 min. Then the superficial and deep cervical lymph nodes were dissected and put on the microscope slices (Fisherbrand). The lymph nodes were placed under the macroscope (MVX10 Research Macro Zoom Microscope, 633 Olympus). The images were acquired in the far-red emission channel (647 nm).

[5] = tested on: superficial cervical lymph vessels; assay: DB53 brain clearance assay (intrastriatal injection, brain retention and femoral vein signal)
Protocol: Clearance assay was conducted using our published method (Pla, V. et al. A real-time in vivo clearance assay for quantification of glymphatic efflux. Cell Rep 40, 111320 (2022)). Briefly, anesthetized mice were mounted in a stereotactic apparatus and a small burr hole was made (AP+0.6 mm; ML-2.0 mm). A guide cannula (26G, […] SPC, 4.5 mm below pedestal) and dummy cannula ([…], 0.1 mm projection) was placed at DV 3.3 mm. After 48 hr, the dummy cannula was replaced by the inner cannula (33G, […]/SP, 0.1 mm projection), connected by a PE10 tubing to a 10 μL Hamilton syringe containing 4% (w/v) DB53 in sterile aCSF. The left femoral vein was exposed via skin resection and was placed under a fluorescent macroscope (microscope: MVX10, Olympus; light: PRIOR Lumen 1600-LED; camera: Flash 4.0 digital, Hamamatsu). The pump infusion (1 μL, […]) was triggered simultaneously with the imaging over the vein, once every 15 min for 2 h for the intraparenchymal delivery. […] At the end of the experiment, animals were decapitated, and their brains were harvested for postmortem analysis. For quantitative image analysis for femoral vein and ex vivo in the brain is the same as described in Pla, V. et al. A real-time in vivo clearance assay for quantification of glymphatic efflux. Cell Rep 40, 111320 (2022).

CCCCC[C@H](O)/C=C/[C@@H]1[C@@H](C/C=C\CCCC(=O)O)[C@@H](O)C[C@H]1O [PGF2α, prostaglandin F2α]
decrease in retrograde fraction ([1]; 2-month-old mice): 64.2%
ejection rate ([1]; 2-month-old mice): no change
increase in ejection fraction ([1]; 2-month-old mice): 7.0%
increase in ejection volume ([1]; 2-month-old mice): 148.6%
median vessel diameter ([1]; 2-month-old mice): decreased
retrograde fraction after PGF2α ([1]; 2-month-old mice, before: 8.1±1.0): 2.9±0.6%
ejection fraction after PGF2α ([1]; 2-month-old mice, before: 90.8±0.8): 97.1±0.6%
increase in CSF drainage (number of microsphere particles detected in cLVs) ([1]; 2-month-old mice, intracisternal fluorescent microspheres): 35.4%
decrease in retrograde fraction ([1]; 22-month-old mice): 83.6%
ejection rate ([1]; 22-month-old mice): no change
increase in ejection fraction ([1]; 22-month-old mice): 31.7%
increase in ejection volume ([1]; 22-month-old mice): 181.4%
median vessel diameter ([1]; 22-month-old mice): decreased
retrograde fraction after PGF2α ([1]; 22-month-old mice, before: 27.5±2.1): 4.5±0.4%
ejection fraction after PGF2α ([1]; 22-month-old mice, before: 72.5±2.1): 95.5±0.5%
solute arriving to the cLN (particle count) compared to untreated aged controls ([1]; aged mice, intracisternal fluorescent microspheres): ~4 times
increase in intrinsic pulsation rate ([1]; old (22-month-old) mice): 152.0%
increase in flow speeds ([1]; old mice, after vs before topical PGF2α): 3.5 fold
contraction amplitude (Δd) ([1]; vs before PGF2α): increased
increase in intrinsic pulsation rate ([1]; young (2-month-old) mice): 50.7%
increase in downstream speed ([1]; young mice, after vs before topical PGF2α): 103.1%
respiratory rate [2]: did not induce changes; also recorded: unaffected
CSF drainage of OVA647 tracer (fluorescence intensity in cLVs) ([3]; old (22-month-old) mice): promoted robust CSF drainage
CSF drainage of OVA647 tracer (fluorescence intensity in cLVs) ([3]; young mice): promoted robust CSF drainage
accumulation of OVA647 in cLNs, ex vivo ([4]; 2-month-old mice): significantly larger accumulation
accumulation of OVA647 in cLNs, ex vivo ([4]; 22-month-old mice): significantly larger accumulation
DB53 signal in the femoral vein ([5]; 75 min, control 4.6±0.8): 8.3±1.3
DB53 signal in the femoral vein ([5]; 90 min, control 5.5±0.6): 10.3±1.5
DB53 signal in the femoral vein ([5]; 105 min, control 6.6±0.7): 10.8±1.4
DB53 signal in the femoral vein ([5]; 120 min, control 6.8±0.7): 11.45±8.3
DB53 signal in the femoral vein (brain clearance to plasma), overall vs control ([5]; 2 h imaging): dramatically increased
DB53 retained in the brain (% area of DB53 fluorescence) ([5]; after intrastriatal DB53, control 10.1±1.3, mean±SEM): 6.3±0.9 % area

— patent publication US20260232693A1, “IMPROVING GLYMPHATIC-LYMPHATIC EFFLUX” (UNIVERSITY OF ROCHESTER, priority 2023, published 2026)
